According to the CheMixHub viscosity set:
Several values for one entry are separate records, joined by “and”; a condition that tells them apart may be missing. Identical values can stand only once. ± gives the uncertainty stated by the source.

Assay: xn = mol fraction of the nth substance listed

CCCCN + CCC(C)O
303.15 K, 101 kPa
Settings | viscosity [mPa·s]
x1 = 0.01013 | 2.438 ± 0.016
x1 = 0.02003 | 2.41 ± 0.016
x1 = 0.03045 | 2.381 ± 0.016
x1 = 0.03818 | 2.364 ± 0.016
x1 = 0.05108 | 2.332 ± 0.015
x1 = 0.05904 | 2.313 ± 0.015
x1 = 0.07204 | 2.283 ± 0.015
x1 = 0.08279 | 2.26 ± 0.015
x1 = 0.09543 | 2.229 ± 0.015

O=[N+]([O-])[O-].[Ag+] + CC#N
298.15 K, 101 kPa
Settings | viscosity [mPa·s]
x1 = 0.012 | 0.409 ± 0.011
x1 = 0.03806 | 0.524 ± 0.014
x1 = 0.1017 | 1.046 ± 0.028
x1 = 0.2421 | 6.48 ± 0.17

CCCC(=O)OCC + CCCCCC
303.15 K, 101 kPa
Settings | viscosity [mPa·s]
x1 = 0.1354 | 0.3067 ± 0.0046
x1 = 0.2995 | 0.3404 ± 0.0047
x1 = 0.3884 | 0.3564 ± 0.0047
x1 = 0.4879 | 0.388 ± 0.0048
x1 = 0.7244 | 0.4602 ± 0.005

CC[N+](=O)[O-] + CCO
viscosity [mPa·s], 101.33 kPa
Settings | 293.15 K | 303.15 K | 313.15 K
x2 = 0.05 | 0.669 ± 0.006 | 0.598 ± 0.005 | 0.538 ± 0.005
x2 = 0.1001 | 0.655 ± 0.006 | 0.584 ± 0.005 | 0.526 ± 0.005
x2 = 0.15 | 0.648 ± 0.006 | 0.576 ± 0.005 | 0.519 ± 0.005
x2 = 0.2 | 0.645 ± 0.006 | 0.573 ± 0.005 | 0.512 ± 0.005
x2 = 0.25 | 0.65 ± 0.006 | 0.57 ± 0.005 | 0.507 ± 0.005
x2 = 0.3 | 0.651 ± 0.006 | 0.571 ± 0.005 | 0.506 ± 0.005
x2 = 0.35 | 0.658 ± 0.006 | 0.575 ± 0.005 | 0.509 ± 0.005
x2 = 0.4 | 0.668 ± 0.006 | 0.583 ± 0.005 | 0.513 ± 0.005
x2 = 0.45 | 0.681 ± 0.006 | 0.593 ± 0.005 | 0.519 ± 0.005
x2 = 0.5 | 0.697 ± 0.006 | 0.603 ± 0.005 | 0.528 ± 0.005
x2 = 0.55 | 0.716 ± 0.006 | 0.618 ± 0.006 | 0.538 ± 0.005
x2 = 0.6 | 0.738 ± 0.006 | 0.636 ± 0.006 | 0.55 ± 0.005
x2 = 0.65 | 0.769 ± 0.007 | 0.656 ± 0.006 | 0.567 ± 0.005
x2 = 0.7 | 0.804 ± 0.007 | 0.682 ± 0.006 | 0.586 ± 0.005
x2 = 0.7499 | 0.839 ± 0.007 | 0.712 ± 0.006 | 0.608 ± 0.005
x2 = 0.8 | 0.886 ± 0.008 | 0.748 ± 0.007 | 0.637 ± 0.006
x2 = 0.8499 | 0.944 ± 0.008 | 0.793 ± 0.007 | 0.672 ± 0.006
x2 = 0.9 | 1.015 ± 0.009 | 0.847 ± 0.007 | 0.715 ± 0.006
x2 = 0.9499 | 1.103 ± 0.009 | 0.914 ± 0.008 | 0.77 ± 0.007

CCCCN + CCOC(C)=O
303.15 K, 101 kPa
Settings | viscosity [mPa·s]
x1 = 0.1573 | 0.4484 ± 0.0042
x1 = 0.2361 | 0.4671 ± 0.0044
x1 = 0.312 | 0.4741 ± 0.0046
x1 = 0.4217 | 0.4759 ± 0.0048
x1 = 0.5671 | 0.476 ± 0.005
x1 = 0.6505 | 0.4772 ± 0.0052
x1 = 0.7907 | 0.4779 ± 0.0055
x1 = 0.8803 | 0.4928 ± 0.0058

Cc1ccncc1 + O
Settings | viscosity [mPa·s]
318.15 K, 101 kPa, x1 = 0.4 | 1.365 ± 0.013

O=c1[nH]cc(F)c(=O)[nH]1 + O
298.15 K, 101.3 kPa
Settings | viscosity [mPa·s]
x1 = 3.46e-05 | 0.8891 ± 0.018
x1 = 9.06e-05 | 0.8892 ± 0.018
x1 = 0.000191 | 0.8901 ± 0.018
x1 = 0.000303 | 0.8905 ± 0.018
x1 = 0.000519 | 0.8917 ± 0.019
x1 = 0.000754 | 0.8926 ± 0.019
x1 = 0.000864 | 0.8933 ± 0.019
x1 = 0.00108 | 0.8946 ± 0.019

Cc1ccncc1 + CCO
298.15 K, 101.33 kPa
Settings | viscosity [mPa·s]
x2 = 0.119 | 0.878 ± 0.011
x2 = 0.2179 | 0.8832 ± 0.01
x2 = 0.3335 | 0.8963 ± 0.0096
x2 = 0.426 | 0.9084 ± 0.0092
x2 = 0.5813 | 0.9345 ± 0.0088
x2 = 0.7893 | 0.9902 ± 0.0084
x2 = 0.8494 | 1.015 ± 0.0085
x2 = 0.9031 | 1.041 ± 0.0085

O=C([O-])CC(=O)[O-].[Na+].[Na+] + O
viscosity, 101 kPa
Settings | x1 = 9e-05 | x1 = 0.00018 | x1 = 0.00027 | x1 = 0.00036
298.15 K | 0.8932 ± 0.022 mPa·s and 0.8932 ± 0.0057 mPa·s | 0.8959 ± 0.037 mPa·s and 0.8959 ± 0.0059 mPa·s | 0.8987 ± 0.022 mPa·s and 0.8987 ± 0.0063 mPa·s | 0.9014 ± 0.022 mPa·s and 0.9014 ± 0.0058 mPa·s
308.15 K | 0.7222 ± 0.021 mPa·s and 0.7222 ± 0.0048 mPa·s | 0.7237 ± 0.021 mPa·s and 0.7237 ± 0.0048 mPa·s | 0.7253 ± 0.021 mPa·s and 0.7253 ± 0.0048 mPa·s | 0.7279 ± 0.021 mPa·s and 0.7279 ± 0.005 mPa·s
318.15 K | 0.598 ± 0.021 mPa·s and 0.598 ± 0.0041 mPa·s | 0.6007 ± 0.021 mPa·s and 0.6007 ± 0.0051 mPa·s | 0.6021 ± 0.021 mPa·s and 0.6021 ± 0.0046 mPa·s | 0.6048 ± 0.021 mPa·s and 0.6048 ± 0.0041 mPa·s

[I-].[K+] + O
310.15 K, 101 kPa
Settings | viscosity [mPa·s]
x1 = 0.000916 | 0.6942 ± 0.0061
x1 = 0.001822 | 0.6976 ± 0.0066
x1 = 0.001827 | 0.7047 ± 0.0067
x1 = 0.002695 | 0.7079 ± 0.0063
x1 = 0.003679 | 0.7155 ± 0.0064
x1 = 0.005197 | 0.7273 ± 0.0066
x1 = 0.005988 | 0.7335 ± 0.0067

Cc1ccncc1 + CCC(C)O
298.15 K, 101.33 kPa
Settings | viscosity [mPa·s]
x2 = 0.0808 | 0.8992 ± 0.011
x2 = 0.1812 | 0.9547 ± 0.011
x2 = 0.2378 | 0.9923 ± 0.012
x2 = 0.3187 | 1.047 ± 0.012
x2 = 0.3221 | 1.052 ± 0.012
x2 = 0.3999 | 1.131 ± 0.013
x2 = 0.4574 | 1.186 ± 0.013
x2 = 0.5582 | 1.328 ± 0.014
x2 = 0.6284 | 1.445 ± 0.015
x2 = 0.7034 | 1.608 ± 0.016
x2 = 0.8528 | 2.092 ± 0.019
x2 = 0.9272 | 2.446 ± 0.022

CCCCN + Cc1cccc(C)c1
303.15 K, 101 kPa
Settings | viscosity [mPa·s]
x1 = 0.0824 | 0.525 ± 0.005
x1 = 0.1495 | 0.516 ± 0.005
x1 = 0.2739 | 0.497 ± 0.005
x1 = 0.387 | 0.484 ± 0.005
x1 = 0.4543 | 0.476 ± 0.005
x1 = 0.5525 | 0.469 ± 0.005
x1 = 0.6484 | 0.462 ± 0.005
x1 = 0.7553 | 0.457 ± 0.005
x1 = 0.816 | 0.453 ± 0.005
x1 = 0.8978 | 0.448 ± 0.005
x1 = 0.9469 | 0.445 ± 0.005

CCCCN + CCCCCC
viscosity [mPa·s]
Settings | 298.15 K | 303.15 K | 313.15 K
101.3 kPa, x2 = 0.0995 | 0.4331 ± 0.0047 | – | 0.3573 ± 0.0041
101.3 kPa, x2 = 0.2009 | 0.4017 ± 0.0044 | – | 0.3331 ± 0.0038
101.3 kPa, x2 = 0.2987 | 0.3782 ± 0.0042 | – | 0.3159 ± 0.0037
101.3 kPa, x2 = 0.4003 | 0.3564 ± 0.004 | – | 0.3002 ± 0.0035
101.3 kPa, x2 = 0.4987 | 0.3397 ± 0.0038 | – | 0.2875 ± 0.0034
101.3 kPa, x2 = 0.5995 | 0.3249 ± 0.0037 | – | 0.2767 ± 0.0033
101.3 kPa, x2 = 0.7021 | 0.3127 ± 0.0036 | – | 0.2675 ± 0.0032
101.3 kPa, x2 = 0.8015 | 0.3036 ± 0.0035 | – | 0.2608 ± 0.0032
101.3 kPa, x2 = 0.8999 | 0.2974 ± 0.0035 | – | 0.2562 ± 0.0031
101.33 kPa, x1 = 0.1342 | – | 0.266 ± 0.007 | –
101.33 kPa, x1 = 0.2674 | – | 0.262 ± 0.007 | –
101.33 kPa, x1 = 0.4006 | – | 0.245 ± 0.007 | –
101.33 kPa, x1 = 0.5268 | – | 0.252 ± 0.007 | –
101.33 kPa, x1 = 0.6349 | – | 0.281 ± 0.007 | –
101.33 kPa, x1 = 0.7491 | – | 0.318 ± 0.008 | –
101.33 kPa, x1 = 0.8215 | – | 0.368 ± 0.01 | –
101.33 kPa, x1 = 0.9178 | – | 0.445 ± 0.012 | –

CC[N+](=O)[O-] + ClC(Cl)(Cl)Cl
viscosity [mPa·s], 101 kPa
Settings | x1 = 0.1 | x1 = 0.2 | x1 = 0.3 | x1 = 0.4 | x1 = 0.5 | x1 = 0.6 | x1 = 0.7 | x1 = 0.8 | x1 = 0.9
303.15 K | 0.7767 ± 0.021 | 0.7448 ± 0.02 | 0.7173 ± 0.019 | 0.6971 ± 0.018 | 0.6667 ± 0.018 | 0.6402 ± 0.017 | 0.6152 ± 0.016 | 0.5924 ± 0.016 | 0.5824 ± 0.015
308.15 K | 0.7408 ± 0.02 | 0.6988 ± 0.018 | 0.6673 ± 0.018 | 0.6509 ± 0.017 | 0.6305 ± 0.017 | 0.6024 ± 0.016 | 0.5769 ± 0.015 | 0.5634 ± 0.015 | 0.5522 ± 0.015
318.15 K | 0.6485 ± 0.017 | 0.6213 ± 0.017 | 0.597 ± 0.016 | 0.5764 ± 0.015 | 0.5533 ± 0.015 | 0.5327 ± 0.014 | 0.514 ± 0.014 | 0.4996 ± 0.013 | 0.4945 ± 0.013

CCCCN + CCCCCCC
303.15 K, 101.33 kPa
Settings | viscosity [mPa·s]
x1 = 0.1262 | 0.355 ± 0.009
x1 = 0.243 | 0.345 ± 0.009
x1 = 0.3214 | 0.358 ± 0.009
x1 = 0.4018 | 0.358 ± 0.009
x1 = 0.4973 | 0.362 ± 0.01
x1 = 0.6195 | 0.381 ± 0.01
x1 = 0.7804 | 0.434 ± 0.011
x1 = 0.8723 | 0.462 ± 0.012
